{"source": "patent US20050163778A1", "about": "“Extracorporeal photopheresis in combination with anti-TNF treatment” (priority 2003, published 2005)", "tested_on": "TNFα production by monocyte-derived dendritic cells", "test": "Examples 2-4: TNFα production by LPS-stimulated monocyte-derived dendritic cells (ELISA of culture supernatants)", "assay_type": "cell-based, human", "conditions": "48 hours", "description": "In examples 1-5, Monocyte-derived dendritic cells were obtained as follows: PBMC were isolated from the peripheral blood of healthy donors by fractionation over Ficoll-Hypaque gradient centrifugation. Monocytes were positively selected using the MACS CD14 isolation kit and the Automacs system (Miltenyi Biotec, Germany). CD14^+ monocytes were cultured in complete RPMI supplemented with 40 ng/ml IL-4 and GM-CSF (R&D Systems) for 5 days. Cytokine secretion was induced by stimulation of the dendritic cells with lypopolysacharides (“LPS”, Sigma). Standard ELISA procedures were used to measure TNFα and IL-12 (R&D Systems) levels in culture supernatants.\nCulture supernatants were harvested from these cultures at 48 hours for measurement of TNFα production. […] While each of these treatments represent a reduction from the baseline value of over 1000 pg/ml, the levels dropped to an average of less than 50 pg/ml when the method of the invention was used.\nCulture supernatants were harvested from these cultures at 48 hours for quantitation of TNFα production. […] While each of these treatments represent a reduction from the baseline value of over 2300 pg/ml, the levels dropped to about 100 pg/ml when the method of the invention was used.\nCulture supernatants were harvested from these cultures at 48 hours for measurement of TNFα production. Another group of dendritic cells were similarly treated and the culture supernatants were harvested from these cultures at 48 hours for quantitation of TNFα production."}
{"substance": "infliximab [Remicade mAb]", "values": [{"measurement": "TNFα in culture supernatant", "setting": "Example 2, increasing quantities of LPS, Remicade mAb 200 ng/ml, ECP-treated CD15+ cells 5×10^5 cells/well, baseline over 1000 pg/ml", "result": "about 100 pg/ml"}, {"measurement": "TNFα in culture supernatant", "setting": "Example 3, 0.1 mg/ml LPS, Remicade mAb 200 ng/ml, ECP-treated CD15+ cells 5×10^5 cells/well, baseline over 2300 pg/ml", "result": "about 500 pg/ml"}, {"measurement": "TNFα in culture supernatant", "setting": "Example 4, 8 ng/ml Remicade mAb, alone or with ECP", "result": "greater than 1300 pg/ml"}, {"measurement": "TNFα in culture supernatant", "setting": "Example 4, about 2 ng/ml Remicade mAb, alone or with ECP", "result": "~1000", "unit": "pg/mL"}]}
